Literature values, collected in US20220143126A1, “SYNERGISTIC COMBINATION OF PHYTOACTIVES” (priority 2019, published 2022).

Conditions: rats, concomitant administration of curcumin with piperine

increase in bioavailability: 150%
Compound: COc1cc(/C=C/C(=O)CC(=O)/C=C/c2ccc(O)c(OC)c2)ccc1O [curcumin]
